These results are taken from ChEMBL document CHEMBL4840319, “Aromatic Cadinane Sesquiterpenoids from the Fruiting Bodies of Phellinus pini Block SARS-CoV-2 Spike-ACE2 Interaction” (J Nat Prod, 2021).

Test [1] has as its target Spike glycoprotein/Angiotensin-converting enzyme 2 (Severe acute respiratory syndrome coronavirus 2) (UniProt Q9BYF1+P0DTC2). As to the kind of experiment: Inhibition of SARS-CoV-2 spike glycoprotein/ His tagged human ACE2 interaction at 100 uM incubated for 1 hr followed by substrate addition and measured after 15 mins by ELISA relative to control. Format: protein assay. (In an ELISA, binding on a coated surface is turned into a signal by an enzyme label.)

For test [2], the target named is Spike glycoprotein/Angiotensin-converting enzyme 2 (Severe acute respiratory syndrome coronavirus 2, UniProt P0DTC2+Q9BYF1). The test can be described thus: Inhibition of SARS-CoV-2 spike glycoprotein/ His tagged human ACE2 interaction incubated for 1 hr followed by substrate addition and measured after 15 mins by ELISA. The format is protein assay.
Spike glycoprotein/Angiotensin-converting enzyme 2, sequence (Q9BYF1 18-805 limits assumed, other chains not shown): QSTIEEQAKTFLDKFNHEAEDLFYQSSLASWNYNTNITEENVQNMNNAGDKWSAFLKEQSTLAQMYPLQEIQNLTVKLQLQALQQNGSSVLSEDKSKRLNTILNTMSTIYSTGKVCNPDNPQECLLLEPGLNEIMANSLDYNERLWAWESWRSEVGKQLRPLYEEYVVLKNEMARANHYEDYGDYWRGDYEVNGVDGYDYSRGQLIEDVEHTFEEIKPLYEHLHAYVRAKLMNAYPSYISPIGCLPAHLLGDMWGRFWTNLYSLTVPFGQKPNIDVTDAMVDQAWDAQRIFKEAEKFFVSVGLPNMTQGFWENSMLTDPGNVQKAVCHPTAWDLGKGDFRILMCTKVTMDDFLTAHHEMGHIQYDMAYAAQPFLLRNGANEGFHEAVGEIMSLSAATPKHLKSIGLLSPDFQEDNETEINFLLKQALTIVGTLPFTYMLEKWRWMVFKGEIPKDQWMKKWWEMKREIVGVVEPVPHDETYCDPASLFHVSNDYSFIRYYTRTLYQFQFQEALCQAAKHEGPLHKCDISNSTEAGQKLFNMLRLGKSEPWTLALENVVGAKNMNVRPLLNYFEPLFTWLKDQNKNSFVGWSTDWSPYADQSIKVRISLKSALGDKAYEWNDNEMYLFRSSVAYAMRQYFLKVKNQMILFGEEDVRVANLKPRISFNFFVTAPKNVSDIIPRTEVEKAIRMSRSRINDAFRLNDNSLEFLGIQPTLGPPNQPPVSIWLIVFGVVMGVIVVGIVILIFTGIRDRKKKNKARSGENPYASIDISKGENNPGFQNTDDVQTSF

By inhibition is commonly meant how much of the control response was suppressed. A low value points to a response near the control. Broadly, the IC50 is the concentration needed to halve the response being measured. Take `CC(C)c1ccc(CO)c2ccc(C(=O)O)cc12`: the inhibition in test [1] is above 50%. Further, the IC50 in test [2] amounted to 99.1 µM.

Compound `CC(C)c1ccc(C(=O)O)c2ccc(C(=O)O)cc12` yielded an inhibition in test [1] above 50%. The same compound displayed an IC50 in test [2] of 95.1 µM.

For `C[C@@H](CO)c1ccc(CO)c2ccc(C(=O)O)cc12`, in test [1], the inhibition was above 50%. Further, in test [2], the IC50 came to 94.4 µM.

The compound `CC(C)(O)c1ccc(CO)c2ccc(C(=O)O)cc12` showed an inhibition in test [1] above 50%. Half-maximal inhibition in test [2] (IC50) required 64.5 µM.

In test [1], `C[C@@H](CO)c1ccc(C(=O)O)c2ccc(C(=O)O)cc12` showed an inhibition above 50%. Moreover, the IC50 in test [2] is 76.1 µM.
